In patent publication US11426444B2, “Compositions, methods and uses for treating post-traumatic stress disorder” (priority 2017, dated 2022):
Ends that are not written are not given here.

Experiments:
Male, Swiss Webster mice = assay: Naloxone-precipitated morphine withdrawal, CRH driven rodent model 2 (Example 6); format: in vivo, mouse
Experimental: A similar study was performed using a CRH antagonist (CP154, 526) in the precipitated withdrawal model.
Male, Swiss Webster mice were treated with seven (7) doses of Morphine 3.2 mg/kg i.p. (d1×5 and d2×2). Animals were then administered a test substance subcutaneously one hour after the last morphine injection with either: (i) nothing (morphine only); (ii) CRH antagonist (CP154, 526) or (iii) TCAP-1 and then an hour after the test substance the animals were administered naloxone i.p at 10 mg/kg, to induce withdrawal.
Two hours after last morphine treatment (i.e. after administration of Naloxone) the mice were immediately placed individually in an observation area and video recorded 20 minutes. The number of jumps (lifting of all feet off the ground) documented for 20 minutes.
(For description on CP154, 526 see for example, CNS Drug Reviews, Vol. 9, No. 1, pp 57-96, Seymour, Patricia A., et al, “The Pharmacology of CP-154,526, A Non-Peptide Antagonist of the CRH1 Receptor: A Review, incorporated herein by reference.)

C57Bl/6J mice [1] = assay: Open field motor activity (OF) after CSD (Example 4); format: in vivo, mouse; conditions: 15 min open field
Experimental: (§1) The mouse chronic social defeat (“CSD”) model has been accepted as a model of PTSD [Flandreau, et al, 2018]. This model involves exposure of C57Bl/6J mice to chronic stress by aggressor mice (male CD-1 ex-breeders) for a defined period of 15 days. Starting from day 15, mice were further tested in the open field (OF) model.
Behavioral tests such as Open field motor activity (OF) were also conducted. See the schematic of FIG. 7.
In this model set up the test was conducted 15 days after the last CSD session. The mouse was placed on the Open Field apparatus floor in the center of empty arena for 15 min without exposure to any other stimuli. The following parameters were calculated from the data: distance moved, number of vertical rearing's, velocity and % resting time (no movement activity). Open field activity chambers (Med Associates Inc, St Albans, Vt.; 27×27×20.3 cm) are equipped with IR beams with red light conditions. A mouse is considered to have no movement activity when the mouse is not breaking two adjacent beams consecutively (distance between two adjacent beams is about 1.7 cm).

C57Bl/6J mice [2] = assay: Chronic social defeat (CSD) model (Example 3); format: in vivo, mouse; conditions: subcutaneous once a day days 1-7; for attack latency (time between retreat and evaluating the predator): FIG. 8
From the text: as §1
Experimental Set Up of Mice.
CD-1 mice were housed, one mouse per cage, during the experiments. C57Bl/6J mice were housed in pairs while not subjected to CSD. Mice are acclimated to the animal facility for minimum 5 days before the onset of the study.
CD-1 aggressor mice are determined by using the procedures by Golden et al. (2011). Screening involves three days of selection testing. After the screening and selection of 80 aggressor mice, the chronic social defeat (CSD) paradigm was conducted.
The CSD mouse group were subcutaneously injected once a day with vehicle or TCAP-1 days 1-7.
Under dim lighting a CSD mouse was subjected to direct exposure with a CD-1 aggressor mouse. […] The latency to the first attack was also recorded, and time needed to gain 60 s physical attack time. After the 10 min session, CSD mice were exposed to CD-1 mice through perforated transparent divider for 24 h. If the CD-1 mice are very aggressive (if wounding consistently exceeds veterinary guidelines), the exposure time can be shortened to 5 min or less.
This setup allows direct and continued olfactory, visual, auditory exposure for the rest of the day. On the following day, a CSD mouse is placed in a cage in similar fashion with 10 min direct exposure followed by chronic exposure through divider. Cycle is repeated for 15 days, replacing the […] with a new one every day until day 15. Thereafter, CSD mice remain caged next to the same CD-1 mice without any further attack sessions or rotations for days 16-17.
Attack latency is the period between retreat and confrontation. […] Aggressive contact time reflects the number of direct contacts. FIG. 9 illustrates that administration of TCAP-1, the animal will approach the predator and not retreat.

Sprague-Dawley rat (SD) = assay: Restraint stress model, corticosterone (Example 7, FIG. 14 B); format: in vivo; conditions: amidated human TCAP-1 (SEQ ID NO: 2); restraint 30-60 minutes on successive days; dosed at day 1 and day 2; effect within 3 days
From the text: Amidated mouse TCAP-1 (SEQ ID NO: 1) was suspended in 0.9% saline. [[…], Ambiopharm] for subcutaneous injection in the interscapular region and used in Examples 1, Amidated human TCAP-1 (SEQ ID NO: 2) was suspended in 0.9% saline. [10 nmol/Kg, Ambiopharm] was used in Example 7, for the SD-rat (FIG. 14 B).
(§2) The inventors, extended the behavioural activity in a severe restraint model the changes in a stress related biomarker such as corticosterone is depicted in FIG. 14. (See for example de Pablos, R. N. et al (2014), Creating a Rat model of Chronic Variate Stress. Bio-protocol 4(23): e1315.DOI).
(§3) In this model animals, Swiss Webster mice (SW) (FIG. 14 A) and Sprague-Dawley rat (SD) (FIG. 14 B) were restrained in confined spaces for upwards of 30-60 minutes on successive days. TCAP-1 was administered once at day 1 and at day 2 in the 5-day model.

Swiss Webster mice = assay: Naloxone-precipitated morphine withdrawal, CRH driven rodent model 1 (Example 5); format: in vivo, mouse
Experimental: In one model, Swiss Webster mice were stressed following chronic opiate administration.
In this Example, TCAP-1 was administered at the graded doses, daily for three days prior to administration of morphine. Morphine was then administered at 3.2 mg/kg i.p. on day 4 (5 times) and 5 (twice), and then one hour the last dose of morphine, naloxone is administered i.p at 10 mg/kg, to induce withdrawal.
One hour after last morphine treatment (i.e. after administration of Naloxone) the mice were immediately placed individually in an observation area and video recorded 20 minutes. The number of jumps (lifting of all feet off the ground) documented for 20 minutes

[3] = system: Male adult Sprague-Dawley rats; assay: Modified Open Field Test with noise pollution (Example 1); format: in vivo, rat
From the text: Male adult Sprague-Dawley rats (˜350 g) treated for 3 months (1 injection/week) with either vehicle (0.9% saline) or TCAP-1 (25 nmoles/kg) were used in Example 1.
Behaviour—Modified Open Field Test
The Open Field Test is a behavioral test paradigm used to investigate anxiety-related behaviours in rodents (Bailey K R and Crawley J N, 2009, in: Buccafusco J J, editor. Source Methods of Behavior Analysis in Neuroscience. 2nd edition. Boca Raton (Fla.): CRC Press/Taylor & Francis; 2009. Chapter 5.). In this experiment, the animals were exposed to high frequency noise pollution to induce a stress response while the animals were in the OFT apparatus. The test was performed one week post last injection of the long-term (3 month) treatment with either vehicle (0.9% saline) or TCAP-1 (25 nmoles/kg). Animals were individually placed in a plexiglass box (50 L×50 W) and digitally recorded and tracked for five (5) minutes. In the centre of the box is a designated section termed the centre zone. Behaviours are then analyzed from videos and recorded for time spent in centre zone, distance travelled in centre zone, and total distance travelled. Moreover, peering behaviour, grooming behaviour, and rearing behaviour were also analyzed (definitions below).
(a) Peering: Digital recordings were analyzed for Peering behaviour. Peering behaviour was defined as the specific notion where animals would stand on their back hind limbs in order to look over the side of the glass wall (i.e, The event where an animal rears specifically to peer over the side of the apparatus). This behaviour can be interpreted as an explorative or anti-fear response.
(b) Grooming: Digital recordings were analyzed for Grooming behaviour. Grooming behaviour was defined as the animals cleaning their face or bodies, i.e., the event where an animal grooms himself (usually his hands and face).
(c) Rearing: Digital recordings were analyzed for Rearing behaviour. Rearing behaviour was defined as an event where animals stand on their hind limbs (i.e., the event where an animal gets on his hind limbs in exploration). This behaviour is interpreted as an explorative behaviour, which is a low anxiety response.
Animals were digitally recorded and tracked for five (5) minutes in the Open Field Test with noise pollution. The noise pollution was large construction noise, intermittent and not at predictable intervals. […] As rearing behaviour is highly associated with anti-anxious behaviour, this corroborates the data indicating TCAP-1 is reducing stress-related behaviour.

Swiss Webster mice (SW) = assay: Restraint stress model, corticosterone (Example 7, FIG. 14 A); format: in vivo, mouse; conditions: restraint 30-60 minutes on successive days; dosed once at day 1 and day 2; effect in 5 days
Experimental: as §2, §3

[4] = 25 nmoles/kg, 1 injection/week for 3 months, 5 min, vs vehicle

Compound	symptomology of precipitated withdrawal (Male, Swiss Webster mice; small molecule CRH antagonist, 20 mg/Kg subcutaneously)	anxiety toward surroundings (C57Bl/6J mice [1])	number of vertical rearings (C57Bl/6J mice [1]; FIG. 10)	attack latency (time between retreat and evaluating the predator) (C57Bl/6J mice [2])	attack latency (time between retreat and evaluating the predator) (C57Bl/6J mice [2]; listed as TCAp-1)	aggressive contact time (number of direct contacts) (C57Bl/6J mice [2]; FIG. 9)	number of jumps per 20 minutes after naloxone (Male, Swiss Webster mice; TCAP-1 250 nmole/Kg subcutaneously one hour after last morphine, versus CP154, 526 at 20 mg/Kg, FIG. 13)	rise in corticosterone (Sprague-Dawley rat (SD))	jumping activity (number of jumps per 20 minutes) following naloxone (Swiss Webster mice; graded doses daily for three days prior to morphine 3.2 mg/kg i.p., naloxone 10 mg/kg i.p., FIG. 12)	symptomology of precipitated withdrawal (Swiss Webster mice; mice stressed following chronic opiate administration)	time in the centre zone ([3]; 25 nmoles/kg, 1 injection/week for 3 months, tested one week post last injection, 5 min, vs vehicle)	entries into centre zone [3, 4]	grooming behaviour [3, 4]	peering behaviour [3, 4]	rearing behaviour [3, 4]	stress-related behaviour in the Open Field Test with noise pollution ([3]; chronic TCAP-1 administration)	rise in corticosterone (Swiss Webster mice (SW))
CCCCN(CC)c1nc(C)nc2c1c(C)cn2-c1c(C)cc(C)cc1C [CP154, 526, reference compound]	limited success																
Teneurin C-Terminal Associated Peptide-1 (QQLLGTGRVQGYDGYFVLSVEQYLELSDSANNIHFMRQSEI-NH2; not fully specified) [TCAP-1]		reduced anxiety toward their surroundings	reduced rearing events were observed	attack latency increased	reduces the time between retreat and evaluating the predator	increased	efficacy	modulated the rise in corticosterone	dose dependent reduction in jumping activity	efficiently modulated	significantly more time in the centre zone	more entries into centre zone	not found to be significantly different between groups	not found to be significantly different between groups	significantly increased	significantly decreased stress-related behaviour	modulated the rise in corticosterone
